Measurements reported in ChEMBL document CHEMBL5620406, “Synthesis and biological evaluation of novel pyrazole amides as potent mitochondrial complex I inhibitors” (Eur J Med Chem, 2023).
Calls of active or inactive are those of the source. The rule behind the calls is not given here.

Key:
[1] = Toxicity in NOD-SCID mouse xenografted with human KG-1 cells assessed as effect on CREA level at 5 mg/kg, ip qd administered 5 consecutive days per week for 24 days; format: organism-based; details: in vivo, 576 h, time 24 day
[2] = Acute toxicity in BALB/c mouse assessed as liver damage at 40 to 68 mg/kg, ip measured on day 14 by H and E staining based analysis; format: organism-based; details: in vivo, 336 h, dose 40-68 mg/kg, time 14 day
[3] = Toxicity in NOD-SCID mouse xenografted with human KG-1 cells assessed as effect on MPV at 5 mg/kg, ip qd administered 5 consecutive days per week for 24 days; format: organism-based; details: in vivo, 576 h, time 24 day
HCT-116 [4] = test: Induction of mitochondrial dysfunction in human HCT-116 cells assessed as attenuation of oxygen consumption rate at 2 nM incubated for 24 hrs by Seahorse XFe24 analyzer; format: functional, cell-based
[5] = Toxicity in NOD-SCID mouse xenografted with human KG-1 cells assessed as effect on neutrophil count at 5 mg/kg, ip qd administered 5 consecutive days per week for 24 days; format: organism-based; details: in vivo, 576 h, time 24 day
[6] = Toxicity in NOD-SCID mouse xenografted with human KG-1 cells assessed as effect on lymphocyte count at 5 mg/kg, ip qd administered 5 consecutive days per week for 24 days; format: organism-based; details: in vivo, 576 h, time 24 day
Cytochrome P450 3A4 = Cytochrome P450 3A4 (Homo sapiens, UniProt P08684); test: Inhibition of CYP3A4 in human liver microsomes incubated for 5 mins in presence of NADPH by LC/MS/MS analysis; format: ADME, Microsome
[7] = Acute toxicity in BALB/c mouse assessed as kidney damage at 40 to 68 mg/kg, ip measured on day 14 by H and E staining based analysis; format: organism-based; details: in vivo, 336 h, dose 40-68 mg/kg, time 14 day
[8] = Acute toxicity in BALB/c mouse assessed as effect on ALP level at 68 mg/kg, ip measured on day 14; format: organism-based; details: in vivo, 336 h, time 14 day
[9] = Toxicity in NOD-SCID mouse xenografted with human KG-1 cells assessed as effect on MCH level at 5 mg/kg, ip qd administered 5 consecutive days per week for 24 days; format: organism-based; details: in vivo, 576 h, time 24 day
[10] = Efflux ratio of apparent permeability across basolateral to apical membrane to apical to basolateral membrane in human Caco-2 cells incubated for 120 mins by LC-MS/MS analysis; format: ADME, cell-based
[11] = Toxicity in NOD-SCID mouse xenografted with human KG-1 cells assessed as effect on hematocrit level at 5 mg/kg, ip qd administered 5 consecutive days per week for 24 days; format: organism-based; details: in vivo, 576 h, time 24 day
HCT-116 [12] = test: Antiproliferative activity against human HCT-116 cells assessed as inhibition of cell growth at 0.1 nM incubated for 96 hrs in presence of galactose by MTT assay; format: functional, cell-based
HCT-116 [13] = test: Induction of ROS generation in human HCT-116 cells at 0.5 nM measured for 30 mins by DCFDA-staining based flow cytometry analysis; format: functional, cell-based
[14] = Acute toxicity in BALB/c mouse assessed as effect on TP level at 68 mg/kg, ip measured on day 14; format: organism-based; details: in vivo, 336 h, time 14 day
[15] = Toxicity in NOD-SCID mouse xenografted with human KG-1 cells assessed as effect on spleen damage at 5 mg/kg, ip qd administered 5 consecutive days per week for 24 days by H and E staining based analysis; format: organism-based; details: in vivo, 576 h, time 24 day
[16] = Toxicity in NOD-SCID mouse xenografted with human KG-1 cells assessed as effect on AST level at 5 mg/kg, ip qd administered 5 consecutive days per week for 24 days; format: organism-based; details: in vivo, 576 h, time 24 day
KG-1 = test: Antiproliferative activity against human KG-1 cells assessed as inhibition of cell growth at 0.1 nM incubated for 96 hrs in presence of galactose by MTT assay; format: functional, cell-based
[17] = Toxicity in NOD-SCID mouse xenografted with human KG-1 cells assessed as effect on ALT level at 5 mg/kg, ip qd administered 5 consecutive days per week for 24 days; format: organism-based; details: in vivo, 576 h, time 24 day
[18] = Toxicity in NOD-SCID mouse xenografted with human KG-1 cells assessed as effect on CHO2 level at 5 mg/kg, ip qd administered 5 consecutive days per week for 24 days; format: organism-based; details: in vivo, 576 h, time 24 day
[19] = Toxicity in NOD-SCID mouse xenografted with human KG-1 cells assessed as effect on TP level at 5 mg/kg, ip qd administered 5 consecutive days per week for 24 days; format: organism-based; details: in vivo, 576 h, time 24 day
[20] = Acute toxicity in BALB/c mouse assessed as effect on ALB level at 68 mg/kg, ip measured on day 14; format: organism-based; details: in vivo, 336 h, time 14 day
[21] = Toxicity in NOD-SCID mouse xenografted with human KG-1 cells assessed as effect on TRIGL level at 5 mg/kg, ip qd administered 5 consecutive days per week for 24 days; format: organism-based; details: in vivo, 576 h, time 24 day
[22] = Toxicity in NOD-SCID mouse xenografted with human KG-1 cells assessed as effect on UA level at 5 mg/kg, ip qd administered 5 consecutive days per week for 24 days; format: organism-based; details: in vivo, 576 h, time 24 day
HCT-116 [23] = test: Induction of ROS generation in human HCT-116 cells measured for 30 mins by DCFDA-staining based flow cytometry analysis; format: functional, cell-based; details: dose <= 0.5 nM
[24] = Toxicity in NOD-SCID mouse xenografted with human KG-1 cells assessed as effect on heart damage at 5 mg/kg, ip qd administered 5 consecutive days per week for 24 days by H and E staining based analysis; format: organism-based; details: in vivo, 576 h, time 24 day
[25] = Acute toxicity in BALB/c mouse assessed as decrease in body weight at 40 mg/kg, ip measured for 24 hrs; format: organism-based; details: in vivo
[26] = Toxicity in NOD-SCID mouse xenografted with human KG-1 cells assessed as effect on UREA level at 5 mg/kg, ip qd administered 5 consecutive days per week for 24 days; format: organism-based; details: in vivo, 576 h, time 24 day
[27] = Acute toxicity in BALB/c mouse assessed as decrease in behavioral activity at 40 mg/kg, ip measured for 24 hrs; format: organism-based; details: in vivo
[28] = Toxicity in NOD-SCID mouse xenografted with human KG-1 cells assessed as effect on RDV at 5 mg/kg, ip qd administered 5 consecutive days per week for 24 days; format: organism-based; details: in vivo, 576 h, time 24 day
[29] = Toxicity in NOD-SCID mouse xenografted with human KG-1 cells assessed as effect on MCHC level at 5 mg/kg, ip qd administered 5 consecutive days per week for 24 days; format: organism-based; details: in vivo, 576 h, time 24 day
NCM460 = test: Antiproliferative activity against human NCM460 cells assessed as inhibition of cell growth incubated for 96 hrs by MTT assay; format: functional, cell-based; details: NCM460, 96 h
[30] = Toxicity in NOD-SCID mouse xenografted with human KG-1 cells assessed as effect on RBC count at 5 mg/kg, ip qd administered 5 consecutive days per week for 24 days; format: organism-based, Erythrocyte; details: in vivo, 576 h, time 24 day
[31] = Toxicity in NOD-SCID mouse xenografted with human KG-1 cells assessed as effect on HGB count at 5 mg/kg, ip qd administered 5 consecutive days per week for 24 days; format: organism-based; details: in vivo, 576 h, time 24 day
Cytochrome P450 2C9 = Cytochrome P450 2C9 (Homo sapiens, UniProt P11712); test: Inhibition of CYP2C9 in human liver microsomes incubated for 10 mins in presence of NADPH by LC/MS/MS analysis; format: ADME, Microsome
[32] = Acute toxicity in ip dosed BALB/c mouse assessed as maximum tolerated dose measured on day 14; format: organism-based; details: in vivo, time 14 day

Sequence of Cytochrome P450 3A4 (P08684 whole entry): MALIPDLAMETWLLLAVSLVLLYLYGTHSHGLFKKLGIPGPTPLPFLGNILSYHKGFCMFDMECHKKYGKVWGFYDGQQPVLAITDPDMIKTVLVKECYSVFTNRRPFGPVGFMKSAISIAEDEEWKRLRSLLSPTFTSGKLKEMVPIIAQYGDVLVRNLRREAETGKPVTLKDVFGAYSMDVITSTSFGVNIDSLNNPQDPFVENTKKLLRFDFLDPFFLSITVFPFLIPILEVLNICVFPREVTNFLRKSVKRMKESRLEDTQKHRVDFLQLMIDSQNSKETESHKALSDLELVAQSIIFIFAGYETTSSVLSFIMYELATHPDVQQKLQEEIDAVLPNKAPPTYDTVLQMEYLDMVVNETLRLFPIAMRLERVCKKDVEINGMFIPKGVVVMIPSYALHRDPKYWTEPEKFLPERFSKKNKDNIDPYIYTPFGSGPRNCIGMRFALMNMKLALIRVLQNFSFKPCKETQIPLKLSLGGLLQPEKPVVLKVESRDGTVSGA
Sequence of Cytochrome P450 2C9 (P11712 whole entry): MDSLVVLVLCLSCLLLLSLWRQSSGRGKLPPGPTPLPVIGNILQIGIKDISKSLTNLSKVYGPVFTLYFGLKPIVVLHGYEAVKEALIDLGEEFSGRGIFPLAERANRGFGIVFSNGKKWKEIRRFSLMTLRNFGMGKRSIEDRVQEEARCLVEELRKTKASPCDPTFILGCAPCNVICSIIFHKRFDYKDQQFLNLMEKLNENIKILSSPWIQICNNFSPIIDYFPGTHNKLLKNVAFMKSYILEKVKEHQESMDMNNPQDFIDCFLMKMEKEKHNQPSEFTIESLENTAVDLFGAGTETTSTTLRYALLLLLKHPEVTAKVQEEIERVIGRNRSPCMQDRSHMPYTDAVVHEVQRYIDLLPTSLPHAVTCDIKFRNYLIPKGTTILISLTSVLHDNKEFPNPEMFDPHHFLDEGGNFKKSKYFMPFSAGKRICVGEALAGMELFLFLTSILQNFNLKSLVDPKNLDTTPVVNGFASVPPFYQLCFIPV

| SMILES | Activity [1] | Activity [2] | Activity [3] | Activity (HCT-116 [4]) | Activity [5] | Activity [6] | IC50 (Cytochrome P450 3A4) [nM] | Activity [7] | Activity [8] | Activity [9] | efflux ratio at 2 h [10] | Activity [11] | Activity (HCT-116 [12]) | Activity (HCT-116 [13]) | Activity [14] | Activity [15] | Activity [16] | Activity (KG-1) | Activity [17] | Activity [18] | further results |
| --- | --- | --- | --- | --- | --- | --- | --- | --- | --- | --- | --- | --- | --- | --- | --- | --- | --- | --- | --- | --- | --- |
| Cc1cc(C(=O)Nc2ccc(C(F)(F)F)cc2)nn1Cc1cccc(N2CCN(C(=O)C3CC3)CC2)c1 | Non-Toxic | Non-Toxic | Non-Toxic | Active | Non-Toxic | Non-Toxic | 7480 | Non-Toxic | Non-Toxic | Non-Toxic | 0.53 | Non-Toxic | Active | Active | Non-Toxic | Non-Toxic | Non-Toxic | Active | Non-Toxic | Non-Toxic | Activity [19]: Non-Toxic; Activity [20]: Non-Toxic; Activity [21]: Non-Toxic; Activity [22]: Non-Toxic; Activity (HCT-116 [23]): Dose-Dependent Effect; Activity [24]: Non-Toxic; Activity [25]: Non-Toxic; Activity [26]: Non-Toxic; Activity [27]: Non-Toxic; Activity [28]: Non-Toxic; Activity [29]: Non-Toxic; IC50 (NCM460): > 1000 nM; Activity [30]: Non-Toxic; Activity [31]: Non-Toxic; IC50 (Cytochrome P450 2C9): 1010 nM; MTD at 336 h [32]: ~6 mg/kg |
| Cc1cc(C(=O)Nc2ccc(OC(F)(F)F)cc2)nn1Cc1cccc(N2CCN(C(=O)C3CC3)CC2)c1 | Non-Toxic | Non-Toxic | Non-Toxic | Active | Non-Toxic | Non-Toxic | 6990 | Non-Toxic | Non-Toxic | Non-Toxic | 0.57 | Non-Toxic | Active | Active | Non-Toxic | Non-Toxic | Non-Toxic | Active | Non-Toxic | Non-Toxic | Activity [19]: Non-Toxic; Activity [20]: Non-Toxic; Activity [21]: Non-Toxic; Activity [22]: Non-Toxic; Activity (HCT-116 [23]): Dose-Dependent Effect; Activity [24]: Non-Toxic; Activity [25]: Non-Toxic; Activity [26]: Non-Toxic; Activity [27]: Non-Toxic; Activity [28]: Non-Toxic; Activity [29]: Non-Toxic; IC50 (NCM460): > 1000 nM; Activity [30]: Non-Toxic; Activity [31]: Non-Toxic; IC50 (Cytochrome P450 2C9): 1830 nM; MTD at 336 h [32]: ~6 mg/kg |
